According to patent publication US8933011B2, “Treatment of preterm labor with toll-like receptor 9 antagonists” (The Provost, Fellows and Scholars of the College of the …, priority 2008, dated 2015):
“Also recorded” adds a separate entry of the source.

Target: T1, Toll-like Receptor 9 (Homo sapiens, UniProt Q9NR96)
T1 construct: endogenous in cells; host or cells: Namalwa cells
T1 sequence (Q9NR96 26-1032): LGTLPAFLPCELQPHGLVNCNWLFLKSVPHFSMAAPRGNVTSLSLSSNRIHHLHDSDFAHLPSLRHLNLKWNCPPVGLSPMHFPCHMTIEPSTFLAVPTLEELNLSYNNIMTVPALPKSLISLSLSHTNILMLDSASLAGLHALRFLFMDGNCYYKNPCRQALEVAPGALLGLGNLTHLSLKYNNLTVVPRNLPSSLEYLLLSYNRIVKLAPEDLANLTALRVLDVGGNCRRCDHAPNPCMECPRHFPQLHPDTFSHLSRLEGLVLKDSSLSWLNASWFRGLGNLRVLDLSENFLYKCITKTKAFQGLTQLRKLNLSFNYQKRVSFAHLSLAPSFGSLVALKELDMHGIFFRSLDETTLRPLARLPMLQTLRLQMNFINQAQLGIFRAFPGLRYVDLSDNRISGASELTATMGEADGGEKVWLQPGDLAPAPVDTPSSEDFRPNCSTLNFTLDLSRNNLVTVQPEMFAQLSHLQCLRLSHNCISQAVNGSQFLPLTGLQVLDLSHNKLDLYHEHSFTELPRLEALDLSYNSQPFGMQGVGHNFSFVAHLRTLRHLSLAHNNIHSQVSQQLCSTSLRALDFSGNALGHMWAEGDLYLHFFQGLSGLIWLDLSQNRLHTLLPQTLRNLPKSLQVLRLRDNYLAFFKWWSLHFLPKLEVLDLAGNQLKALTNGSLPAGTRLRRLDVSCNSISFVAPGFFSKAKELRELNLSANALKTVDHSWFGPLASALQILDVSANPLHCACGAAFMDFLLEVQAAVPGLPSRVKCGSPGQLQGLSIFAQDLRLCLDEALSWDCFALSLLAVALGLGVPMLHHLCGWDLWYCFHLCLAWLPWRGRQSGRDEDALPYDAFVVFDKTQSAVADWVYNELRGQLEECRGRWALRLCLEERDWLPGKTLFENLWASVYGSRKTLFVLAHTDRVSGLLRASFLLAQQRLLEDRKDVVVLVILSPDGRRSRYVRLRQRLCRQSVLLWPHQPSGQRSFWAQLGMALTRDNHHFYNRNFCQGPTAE
Assay: Inhibition of fetal DNA induced I-kappa-B degradation in Namalwa cells by TLR9 inhibitors
Type: cell-based
Conditions: Namalwa cells pre-treated at 75 μM, then fetal DNA 3.0 μg/ml
Experimental: Inhibition of Toll-like Receptor 9 was carried out using the Toll-like Receptor 9 antagonist cholorquine and a synthetic inhibitory oligodinucleotide (TTAGGG) which was obtained from InvivoGen. […] The recommended concentration from package inserts was to use a 10-100 microM concentration. […] The same fetal DNA (3.0 μg/ml) was then used to stimulate cells over time in minutes as described above.
Namalwa cells (2.0×10^7 cells/ml) were also incubated with synthetic inhibitory TLR-9 oligonucleotide (ODN+) at an 8:1 ratio of oligodinucleotide (ODN) to ligand. The package insert recommended a 1-10:1 ratio of inhibitory oligodinucleotide (ODN) to stimulatory oligodinucleotide (ODN). […] This was followed by stimulation with the same purchased fetal DNA at 3.0 μg/ml using the method described hereinbefore.
In FIGS. 5A and 6A Namalwa cells (2.0×10^7 cells/ml) were incubated with the inhibitory TLR-9 oligonucleotide (ODN+) in an 8:1 ratio of ODN to ligand. This was followed by stimulation with fetal DNA at a concentration of 3.0 μg/ml.
In FIGS. 5B and 6B, the TLR9 antagonist cholorquine was used to pre-treat Namalwa cells at 2.0×10^7 cells/ml at a concentration of 75 μM. Fetal DNA (3.0 microg/ml) was then used to stimulate cells over time in minutes.

Question: For `CCN(CC)CCCC(C)Nc1ccnc2cc(Cl)ccc12` (centres unmarked) [chloroquine, N′-(7-chloroquinolin-4-yl)-N,N-diethyl-pentane-1,4-diamine], which “inhibition of fetal DNA induced I-kappa-B degradation” value is on record?
Answer: can also inhibit this response; also recorded: Induction of I-kappa-B degradation was inhibited; also recorded: blocked the effect of fetal DNA on I-kappaB degradation

Question: What about the “inhibition of fetal DNA induced I-kappa-B degradation” value (listed as Chloroquine) of the same compound?
Answer: blocked I-kappa-B degradation; also recorded: blocked 1-kappa-B degradation
